Measurements taken from PMC12654037, “Norditerpene Natural Products from Subterranean Fungi with Anti-Parasitic Activity” (Microorganisms, 2025).

Legend:
Assay type in all cases: cell-based
HepG2 human hepatocytes = assay: HepG2 cytotoxicity assay (MTS); conditions: 48 h, mean +/- SD
Protocol: HepG2 cytotoxicity assay: Mammalian cell cytotoxicity was assessed in HepG2 human hepatocytes using an MTS 3-(4,5-dimethylthiazol-2-yl)-5-(3-carboxymethoxyphenyl)-2-(4-sulfophenyl)-2H-tetrazolium)-based cytotoxicity assay. For cytotoxicity testing, ∼2250 cells were seeded into each well of a 384-well microtiter plate and incubated for 24 h. Serial dilutions of the compounds were added in triplicate starting at 25 μM. Cells were further incubated for an additional 48 h at 37 °C in an atmosphere containing 5% CO2. Zero-growth control wells were incubated with 5% Triton X-100 for 5 min prior to MTS addition. Following the addition of MTS to all wells, the plates were incubated for an additional 4 h under the same environmental conditions before taking absorbance measurements. Absorbance values were recorded at 490 nm using a Synergy Neo2 multimode reader (BioTek), and values were normalized based on Triton X-100-lysed and no treatment controls. Samples were run in triplicate in each assay, and the experiments were repeated three times.

[1] = test system: G. lamblia WBC6 and CBG99 trophozoites; assay: Giardia lamblia trophozoite growth inhibition assay
Protocol: Compound inhibition assay against Giardia lamblia WBC6 and CBG99 trophozoites: Biological replicates of growth inhibition assays were performed using wild-type G. lamblia WBC6 and G. lamblia CBG99 trophozoites at 37 °C under reduced oxygen conditions in a sealed 0.5 mL airtight sterile tube (USA Scientific, Ocala, FL, USA), following the susceptibility assay described below. G. lamblia trophozoites were grown in TYI-S-33 medium supplemented with 10% bovine serum and 0.05 mg/mL bovine bile, as previously described. A 3-fold serial concentration of pure compounds starting at 29 µM was screened against 75,000 cells/mL of parasites in modified TYI-S-33 medium with a final dimethyl sulfoxide (DMSO) concentration of 0.14%. Metronidazole was run in parallel at a final highest concentration of 66.7 µM and 3-fold subsequent serial dilutions. The untreated negative control contained 0.14% of DMSO. Sealable test tubes filled to its maximum volume of 700 µL were used to perform this assay. The test tubes were incubated at 37 °C for 72 h. After incubation, the tubes were chilled on ice, and the reaction was transferred to 96-well plates. In the plate, 50 µL of an ATP binding luminescence marker, CellTiter-Glo (Promega, Madison, WI, USA) or 10 µL of 2.5 mg/mL d-luciferin (GoldBio, St Louis, MO, USA) was added to each well and allowed to develop at room temperature for 10 min [31, 36]. The assay was read and analyzed using an EnVision Plate Reader (Perkin Elmer, Waltham, MA, USA). Response curves and EC50 values (the concentration at which 50% of G. lamblia trophozoite growth was inhibited) were calculated using GraphPad Prism (GraphPad, LaJolla, CA, USA).

HFF cells = assay: HFF cytotoxicity assay
Protocol: HCT-8 and HFF cytotoxicity assays: Cytotoxicity of the compounds was determined against both confluent (the conditions of the infection assays) and growing HCT-8 and HFF host cells, as previously described. Cells were seeded into white-sided, clear-bottom 96-well plates and grown to either 40% or 100% confluency. Compounds were added to cells at various concentrations up to 100 µM in a final DMSO concentration of 0.5%. DMSO was run in parallel as a vehicle control. After 48 h, the viability of the cells was determined by either quantification of cellular ATP (Cell-Titer Glo cell viability assay; Promega, Madison WI, USA) or by MTT assay. Viability was determined 24 h after compound addition to HFF cells or 48 h after compound addition to HCT-8 cells or HepG2 cells. The percent cell growth was then calculated with the following formula: % Cell Growth = [RLUcompound/RLUDMSO] × 100. Samples were run in triplicate with two to three biological replicates.

For `CO[C@H]1OC(=O)C=C2[C@@]13O[C@@H]3[C@H]1OC(=O)[C@@]3(C)CCC[C@@]2(C)[C@@H]13` [compound 1, oidiolactone A], the TC50 HepG2 (HepG2 human hepatocytes) was over 25 µM, the “activity against G. lamblia (no activity up to)” value ([1]; 72 h) was over 29 µM and the EC50 ([1]; Giardia duodenalis, read-out: EC50 G. lamblia) was over 30 µM. For the same compound, the “TC50 HFF (confluent)” value (HFF cells; confluent) was over 30 µM, the “toxicity to host cells (no toxicity up to)” value (HFF cells; confluent HFF, conditions of the infection assay, 24 h, cellular ATP) was over 100 µM and the “cytotoxicity against sub-confluent HFF” value (HFF cells; sub-confluent) was “no cytotoxicity observed”.
